Measurements: patent publication US11512042B2, “Enamine compounds for absorbance of electromagnetic energy” (Commonwealth Scientific and Industrial Research Organisation, priority 2015, dated 2022)
Values joined by “and” are separate entries in the source; they are usually repeats but may differ in a detail not shown here. Equal entries are not always repeated.

Columns and labels:
Assay type in all cases: physicochemical
[1] = UV absorbance spectrum in solution (λmax, λcrit, extinction coefficients); details: for λcrit: critical wavelength; for E (1%, 1 cm): mass extinction coefficient; for ε: molar extinction coefficient, in M-1 cm-1 (unit assumed)
Method in brief: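 Spectra taken on 0.001% solutions in methanol, 10 mm path. Breakthrough is the wavelength where transmittance rises above 1%; steepness is the nm span over which transmittance goes from 1 to 80%.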

[2] = % transmission spectrum of 0.1% solution (breakthrough, steepness); details: for Steepness: distance in nm over which transmittance increases from 1 to 80%; for Breakthrough (1% T at 0.1%): value in nm where transmittance increases beyond 1%, 0.1% solution
From the text: FIG. 2 is a is a graphical representation of the % transmission of compounds 142 and 143 measured in a 2 mm cuvette as 0.1% solutions in methanol (142 is the left most trace);
The synthesised benzoyl functionalised compounds and their spectroscopic properties can be seen in table 2 wherein; breakthrough denotes the value in nm where transmittance increases beyond 1%; steepness refers to the distance in nm over which transmittance increases from 1 to 80% (a higher value indicates a less steep transition from absorbing to transmitting and is generally unfavourable); and ^a denotes an average of multiple measurements. As a general comment, it can be noted that the benzoyl substituted compounds gave similar absorbance maxima to the corresponding trifluoroacetyl derivative.

[3] = Photostability protocol: thin film irradiated with xenon arc lamp; details: 1 hour xenon arc lamp; for Photostability: ratio of absorbance at λmax irradiated vs unirradiated, ^a = average of multiple measurements
Method: 1 mL of a 3% solution of the test compound (30 mg of test compound in 1 mL solvent) was prepared in a solvent mix made up of 50% EtOH and 25% capric/caprylic triglyceride and 25% C12-C15 alkyl benzoate. 50 μL of this solution (containing 1.5 mg of test compound) was added carefully to the centre of a glass microscope slide and the volatile components left to evaporate in the dark for at least 3 hours to give a liquid film. The prepared films were then exposed for 1 hour to an Eimac 150 W xenon arc lamp filtered through Pyrex (15 Amp supply current, samples 19 cm from the lamp) previously allowed to warm up for 15 minutes prior to sample exposure. The irradiation was performed in a fume cupboard where the air flow was sufficient to keep sample T<30° C. One hour's exposure represented a calculated radiation dose (using meter) of approximately 100 MED.
In order to calculate the photostability of the test compounds, the exposed slides were placed in a beaker and rinsed with 2×5 mL EtOH, 1×5 mL MeOH. The combined washings were then added to a 100 mL volumetric flask and made up to 100 mL total volume with methanol. The UV absorbance was then measured in a 10 mm cuvette. The percent stability is measured as the ratio of absorbance at λmax for the irradiated sample compared to the unirradiated sample.
The thin films are a good surrogate for testing the stability of a candidate in, for example, a sunscreen formulation as they use cosmetic emollients as solvent and are formed at cosmetically relevant concentrations.

| SMILES | λmax [1] | λcrit [1] | E (1%, 1 cm) [1] | ε [1] | Steepness [2] | Breakthrough (1% T at 0.1%) [2] | Photostability [3] | Photostability (% remains) [3] |
| --- | --- | --- | --- | --- | --- | --- | --- | --- |
| CCN(/C=C(/C(=O)C(=O)N(C)C)c1ccccc1)CC [Compound 261] | 310 nm | 342 nm | 844 | 23144 | 28 nm | 355 nm | 63% | – |
| COC(=O)c1ccc2c(c1)CCN2/C=C(/C(=O)C(=O)N1CCc2ccccc21)c1ccccc1 [Compound 305] | 375 nm | 391 nm | 1078 | 48709 | 23 nm | 417 nm | 80% and 75% | – |
| CC(C)(C)OC(=O)C(=O)/C(=C/N1CCc2ccccc21)c1ccccc1 [Compound 267] | 366 nm | 389 nm | 940 | 32824 | 32 nm | 417 nm | 76% | – |
| COc1ccccc1C(=O)/C(=C/N1CCc2ccccc21)c1ccccc1 [Compound 275] | 358 nm | 383 nm | 1074 | 38139 | 30 nm | 406 nm | 56% | – |
| CC(C)(C)OC(=O)C(=O)/C(=C/N(c1ccccc1)c1ccccc1)c1ccccc1 [Compound 270] | 349 nm | 381 nm | 551 | 22023 | 35 nm | 400 nm | 89% | – |
| COC(=O)c1ccc2c(c1)CCN2/C=C(/C(=O)c1ccc(C(C)(C)C)cc1)c1ccccc1 [Compound 287] | 373 nm | 389 nm | 1007 | 44238 | 35 nm | 425 nm | 76% | – |
| CCCN(/C=C(/C(=O)C(F)(F)F)c1ccccc1)c1ccccc1 [Compound 233] | 331 nm | 365 nm | 734 | 24467 | 36 nm | 380 nm | 87% | – |
| CCN(CC)C(=O)C(=O)/C(=C/N1CCc2cc(C(=O)OC)ccc21)c1ccccc1 [Compound 290] | 370 nm | 389 nm | 1260 | 51191 | 22 nm | 412 nm | 53% | – |
| CCN(/C=C(/C(=O)c1ccccc1)c1ccccc1)c1ccccc1 [Compound 245] | 333 nm | 374 nm | 621 | 20292 | 40 nm | 384 nm and 394 nm | 55% | – |
| CCOC(=O)C(=O)/C(=C/N1CCc2cc(C(=O)OC)ccc21)c1ccccc1 [Compound 256] | 372 nm | 391 nm | – | 48566 and 46566 | 28 nm | 421 nm | 85% | – |
| COC(=O)c1ccc2c(c1)CCN2/C=C(/C(=O)C(=O)OC(C)(C)c1ccccc1)c1ccccc1 [Compound 280] | 357 nm | 370 nm | 1440 | 67567 | 21 nm | 384 nm | 68% | – |
| CCCCC(CC)COC(=O)C(=O)/C(=C/N1CCc2cc(C(=O)OC)ccc21)c1ccccc1 (centres unmarked) [Compound 278] | 372 nm | 391 nm | 953 | 44118 | 30 nm | 418 nm | 88% | – |
| O=C(/C(=C/N(c1ccccc1)c1ccccc1)c1ccccc1)c1ccccc1 [Compound 244] | 352 nm | 383 nm | 536 | 20114 | 43 nm | 407 nm | 58% | – |
| CCN(/C=C(\C(=O)C(=O)N(C)C)c1ccccc1)c1ccccc1 [Compound 259] | 326 nm | 365 nm | 724 | 23336 | 34 nm | 378 nm | 66% | – |
| CCOC(=O)C(=O)/C(=C\N(CC)c1ccccc1)c1ccccc1 [Compound 248] | 329 nm | 368 nm | 728 | 23523 | 38 nm | 383 nm | 78% | – |

Second part, the molecule after the results:

| λmax [1] | λcrit [1] | E (1%, 1 cm) [1] | ε [1] | Steepness [2] | Breakthrough (1% T at 0.1%) [2] | Photostability [3] | Photostability (% remains) [3] | SMILES |
| --- | --- | --- | --- | --- | --- | --- | --- | --- |
| 367 nm | 384 nm | 1339 | 48637 | 16 nm | 401 nm | 87% and 88% | – | COC(=O)c1ccc2c(c1)CCN2/C=C(/C(=O)C(C)(C)C)c1ccccc1 [Compound 283] |
| 355 nm | 375 nm | 929 | 34122 | 26 nm | 392 nm | 78% | – | Cc1cc(C)c(C(=O)/C(=C/N2CCc3ccccc32)c2ccccc2)c(C)c1 [Compound 253] |
| 367 nm | 384 nm | 1189 | 54826 | 16 nm | 400 nm | 81% and 83% | – | CCCCC(CC)COC(=O)c1ccc2c(c1)CCN2C=C(C(=O)C(C)(C)C)c1ccccc1 (centres unmarked) [Compound 300] |
| 345 nm | 378 nm | 666 | 27034 | 34 nm | 398 nm | 76% | – | COc1ccccc1C(=O)/C(=C/N(c1ccccc1)c1ccccc1)c1ccccc1 [Compound 285] |
| 371 nm | 389 nm | 1096 | 41977 | 34 nm | 422 nm | 76% | – | COC(=O)c1ccc2c(c1)CCN2/C=C(/C(=O)c1ccccc1)c1ccccc1 [Compound 247] |
| 361 nm | 386 nm | 893 | 29026 | 37 nm | 420 nm | 70% | – | O=C(/C(=C/N1CCc2ccccc21)c1ccccc1)c1ccccc1 [Compound 243] |
| 323 nm | 359 nm | 771 | 26295 | 39 nm | 373 nm and 372 nm | 48% | – | CCN(/C=C(/C(=O)c1ccccc1C)c1ccccc1)c1ccccc1 [Compound 252] |
| 369 nm | 382 nm | 1164 | 60921 | 24 nm | 399 nm | 94% and 93% | – | CCCCC(CC)COC(=O)c1ccc2c(c1)CCN2C=C(C(=O)c1c(C)cc(C)cc1C)c1ccccc1 (centres unmarked) [Compound 303] |
| 355 nm | 378 nm | 991 | 33598 | 30 nm | 399 nm | 52% | – | Cc1ccccc1C(=O)/C(=C/N1CCc2ccccc21)c1ccccc1 [Compound 251] |
| 357 nm | 370 nm | 1405 | 59157 | 18 nm | 381 nm | 78% | – | CCC(CC)(CC)OC(=O)/C(=C/N1CCc2cc(C(=O)OC)ccc21)c1ccccc1 [Compound 289] |
| 319 nm | 350 nm | 860 | 23306 | 23 nm | 361 nm | 97% | 97% | CCN(/C=C(\C(=O)C(F)(F)F)c1ccccc1)CC [Compound 144] |
